From patent US9303033B2, “Pyrazolopyrimidines and related heterocycles as CK2 inhibitors” (SENHWA BIOSCIENCES, INC., priority 2009, dated 2016)
pIC50: −log10 of the molar value. Where two headings read alike, the source gives them in different places.

Tests used:
CK2 ααββ = CK2 ααββ (Homo sapiens (Human), UniProt P68400); assay: CK2 assay (cell-free, 33P-ATP, phosphocellulose filter plate); assay type: biochemical
recombinant human PIM2 = recombinant human PIM2 (Homo sapiens (Human), UniProt Q9P1W9); assay: PIM-2 assay (33P-ATP filter binding); assay type: biochemical; conditions: for PIM2: % inh […]: at […] compound
[1] = PIM2: IC50 (5 μM ATP), 5 μM ATP

CK2 ααββ, sequence (P68400 whole entry): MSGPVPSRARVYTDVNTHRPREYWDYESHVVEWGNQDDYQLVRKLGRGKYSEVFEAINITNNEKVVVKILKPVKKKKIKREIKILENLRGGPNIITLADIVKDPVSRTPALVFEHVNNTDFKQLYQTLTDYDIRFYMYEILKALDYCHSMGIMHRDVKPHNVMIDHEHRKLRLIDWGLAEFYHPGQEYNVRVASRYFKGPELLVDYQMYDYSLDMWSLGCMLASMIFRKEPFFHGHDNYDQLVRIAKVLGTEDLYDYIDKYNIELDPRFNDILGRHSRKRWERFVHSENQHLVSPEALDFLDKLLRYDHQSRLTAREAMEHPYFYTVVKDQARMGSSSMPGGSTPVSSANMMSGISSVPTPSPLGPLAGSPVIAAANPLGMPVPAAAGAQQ
CK2 ααββ, sequence (P67870 whole entry partner): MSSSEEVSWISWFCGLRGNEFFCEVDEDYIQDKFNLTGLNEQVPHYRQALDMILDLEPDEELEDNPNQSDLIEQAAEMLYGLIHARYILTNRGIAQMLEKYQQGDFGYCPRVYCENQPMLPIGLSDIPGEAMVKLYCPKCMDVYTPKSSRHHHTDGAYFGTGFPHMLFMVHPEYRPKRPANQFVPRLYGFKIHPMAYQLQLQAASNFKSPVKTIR
recombinant human PIM2, sequence (Q9P1W9 whole entry): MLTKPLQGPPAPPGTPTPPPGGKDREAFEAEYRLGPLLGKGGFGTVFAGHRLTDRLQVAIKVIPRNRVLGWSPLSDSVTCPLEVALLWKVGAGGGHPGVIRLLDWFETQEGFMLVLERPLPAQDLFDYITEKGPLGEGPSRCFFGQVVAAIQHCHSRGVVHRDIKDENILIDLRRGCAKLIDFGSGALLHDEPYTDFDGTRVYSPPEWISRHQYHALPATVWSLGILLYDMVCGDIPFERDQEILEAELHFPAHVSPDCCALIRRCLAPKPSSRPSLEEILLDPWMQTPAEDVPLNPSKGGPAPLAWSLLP

Row | pIC50 (CK2 ααββ) | pIC50 (recombinant human PIM2; [1]) | SMILES | also measured
1 | > 7.00 | < 5.60 | CCOC(=O)c1cc(F)cc(Nc2cc(NCC3CC3)n3ncc(/C=C4\NC(=O)NC4=O)c3n2)c1 [Example U1] | –
2 | > 7.00 | < 5.60 | CC(=O)Nc1cccc(Nc2cc(NCC3CC3)n3ncc(/C=C4\NC(=O)NC4=O)c3n2)c1 [Example Y1] | –
3 | > 6.00 | – | CC(C)C(CNc1cc(Nc2cccc(Cl)c2)nc2c(/C=C3\NC(=O)NC3=O)cnn12)N(C)C (centres unmarked) [Example W6] | –
4 | > 7.00 | < 5.60 | COC(=O)N1CCC(Nc2cc(Nc3cccc(Cl)c3)nc3c(/C=C4\NC(=O)NC4=O)cnn23)CC1 [Example T5] | –
5 | > 6.00 | – | Cc1c(N2CCN(c3ncccc3C#N)CC2)nc2c(C=C3SC(=O)NC3=O)cnn2c1NC1CC1 [Example T46] | PIM2: % inh […] (recombinant human PIM2): 50.998%
6 | > 8.00 | 5.71 | C[C@@H](Nc1cc(NC2CC2)n2ncc(/C=C3\NC(=O)NC3=O)c2n1)C1CC1 [Example X2] | –
7 | > 6.00 | 5.65 | O=C1NC(=O)/C(=C/c2cnn3c(SCc4ccccc4)cc(Nc4cccc(Cl)c4)nc23)N1 [Example X5] | –
8 | > 6.00 | – | Cc1c(N2CCN(c3ncccc3C#N)CC2)nc2c(C=C3NC(=O)NC3=O)cnn2c1NC1CC1 [Example R46] | PIM2: % inh […] (recombinant human PIM2): 68.545%
9 | > 6.00 | < 5.60 | CC(O)CN1CCC(Nc2cc(Nc3cccc(Cl)c3)nc3c(/C=C4\NC(=O)NC4=O)cnn23)CC1 (centres unmarked) [Example U5] | –
10 | > 6.00 | 6.54 | O=C1NC(=O)/C(=C/c2cnn3c(SCc4ccccc4)cc(-c4cccc(Cl)c4)nc23)N1 [Example Y5] | –
11 | > 7.00 | – | O=C1NC(=O)/C(=C/c2cnn3c(NCC4(CN5CCOCC5)CC4)cc(Nc4cccc(Cl)c4)nc23)N1 [Example Z6] | –
12 | > 7.00 | – | O=C1NC(=O)/C(=C/c2cnn3c(Nc4cc[nH]n4)cc(Nc4cccc(Cl)c4)nc23)N1 [Example S6] | –
13 | > 6.00 | < 5.60 | O=C1NC(=O)/C(=C/c2cnn3c(NC4CCN(Cc5ccccn5)CC4)cc(Nc4cccc(Cl)c4)nc23)N1 [Example V5] | –
14 | > 6.00 | < 5.60 | CCN1CCC(Nc2cc(Nc3cccc(Cl)c3)nc3c(/C=C4\NC(=O)NC4=O)cnn23)CC1 [Example W5] | –
15 | > 6.00 | 5.95 | O=C1NC(=O)/C(=C/c2cnn3c(NCC4(CO)CCCC4)cc(Nc4cccc(Cl)c4)nc23)N1 [Example R6] | –
16 | > 8.00 | 6.06 | O=C1NC(=O)/C(=C/c2cnn3c(NC4CC4)cc(NC4CCNCC4)nc23)N1 [Example W2] | –
17 | > 7.00 | 5.66 | CC(C)CN1CCC(Nc2cc(Nc3cccc(Cl)c3)nc3c(/C=C4\NC(=O)NC4=O)cnn23)CC1 [Example R5] | –
18 | > 6.00 | – | CCOCC1(CNc2cc(Nc3cccc(Cl)c3)nc3c(/C=C4\NC(=O)NC4=O)cnn23)CC1 [Example X6] | –
19 | > 7.00 | – | CC(C)(C)OC(=O)N1CCC(CNc2cc(Nc3cccc(Cl)c3)nc3c(/C=C4\NC(=O)NC4=O)cnn23)CC1 [Example T6] | –
20 | > 7.00 | – | CC(C)(CO)CNc1cc(Nc2cccc(Cl)c2)nc2c(/C=C3\NC(=O)NC3=O)cnn12 [Example V6] | –
21 | > 8.00 | 5.69 | O=C1NC(=O)/C(=C/c2cnn3c(NC4CC4)cc(Nc4ccc(F)c(Cl)c4)nc23)N1 [Example S1] | –
22 | > 7.00 | < 5.60 | CC(C)(C)CC(=O)N1CCC(Nc2cc(Nc3cccc(Cl)c3)nc3c(/C=C4\NC(=O)NC4=O)cnn23)CC1 [Example S5] | –
23 | > 6.00 | – | Cc1c(N2CCN(c3ccccn3)CC2)nc2c(C=C3SC(=O)NC3=O)cnn2c1NC1CC1 [Example S46] | PIM2: % inh […] (recombinant human PIM2): −19.761%
24 | > 6.00 | 6.53 | O=C1NC(=O)/C(=C/c2cnn3c([S+]([O-])Cc4ccccc4)cc(Nc4cccc(Cl)c4)nc23)N1 (centres unmarked) [Example Z5] | –
25 | > 8.00 | < 5.60 | CNS(=O)(=O)c1cccc(-c2cc(NC3CC3)n3ncc(/C=C4\NC(=O)NC4=O)c3n2)c1 [Example Y3] | –
26 | > 7.00 | – | CN1CCN(CC2(CNc3cc(Nc4cccc(Cl)c4)nc4c(/C=C5\NC(=O)NC5=O)cnn34)CC2)CC1 [Example Y6] | –
27 | > 7.00 | – | NCc1cccc(Nc2cc(NCC3CC3)n3ncc(/C=C4\NC(=O)NC4=O)c3n2)c1 [Example Z1] | –

The next lines start with the compound.

Row | SMILES | pIC50 (CK2 ααββ) | pIC50 (recombinant human PIM2; [1]) | also measured
28 | O=C1NC(=O)/C(=C/c2cnn3c(NCC4CC4)cc(Nc4cc(F)cc(F)c4)nc23)N1 [Example J2] | > 7.00 | < 5.60 | –
29 | COc1cccc(Nc2cc(NC3CC3)n3ncc(/C=C4\NC(=O)NC4=O)c3n2)c1Cl [Example P1] | > 8.00 | < 5.60 | –
30 | CC(C)Nc1cc(Nc2cccc(Cl)c2)nc2c(/C=C3\NC(=O)NC3=O)cnn12 [Example F6] | > 7.00 | < 5.60 | –
31 | N[C@H]1CC[C@H](Nc2cc(NC3CC3)n3ncc(/C=C4\NC(=O)NC4=O)c3n2)CC1 [Example R2] | > 7.00 | 6.06 | –
32 | O=C1NC(=O)/C(=C/c2cnn3c(NC4CC4)cc(-c4ccc(F)c(C(=O)NCCN5CCCC5)c4)nc23)N1 [Example E5] | > 7.00 | < 5.60 | –
33 | O=C1NC(=O)/C(=C/c2cnn3c(NCC4CC4)cc(Nc4ccncc4)nc23)N1 [Example E2] | > 8.00 | – | –
34 | CN(C)CC(C)(C)CNc1cc(Nc2cccc(Cl)c2)nc2c(/C=C3\NC(=O)NC3=O)cnn12 [Example M6] | > 6.00 | < 5.60 | –
35 | Cc1cc(-c2cc(NC3CC3)n3ncc(/C=C4\NC(=O)NC4=O)c3n2)cc(C)c1O [Example C5] | > 6.00 | < 5.60 | –
36 | O=C1NC(=O)/C(=C/c2cnn3c(NCC4CC4)cc(Nc4ccc(Cl)cn4)nc23)N1 [Example H2] | > 8.00 | – | –
37 | CC(Oc1nc(NC2CC2)n2ncc(C=C3NC(=O)NC3=O)c2n1)c1c(Cl)ccc(F)c1Cl (centres unmarked) [Compound L36] | > 8.00 | – | pIC50 (recombinant human PIM2; read-out: PIM2: IC50): < 6.00
38 | O=C1NC(=O)/C(=C/c2cnn3c(NCC4CC4)cc(Nc4cccc(S(=O)(=O)N5CCCC5)c4)nc23)N1 [Example F2] | > 7.00 | – | –
39 | O=C1NC(=O)/C(=C/c2cnn3c(NC4CC4)cc(Nc4cc(Cl)ccc4F)nc23)N1 [Example Q1] | > 8.00 | < 5.60 | –
40 | CN(C)C(=O)N[C@H]1CC[C@H](Nc2cc(NC3CC3)n3ncc(/C=C4\NC(=O)NC4=O)c3n2)CC1 [Example B3] | > 7.00 | 6.27 | –
41 | O=C1NC(=O)/C(=C/c2cnn3c(NCC4(CN5CCCC5)CC4)cc(Nc4cccc(Cl)c4)nc23)N1 [Example A7] | > 7.00 | – | –
42 | O=C1NC(=O)/C(=C/c2cnn3c(NCC4CC4)cc(Nc4cccc(O)c4)nc23)N1 [Example B2] | > 7.00 | – | –
43 | O=C1NC(=O)/C(=C/c2cnn3c(NC4CCC4)cc(Nc4cccc(Cl)c4)nc23)N1 [Example G6] | > 6.00 | < 5.60 | –
44 | O=C1NC(=O)/C(=C/c2cnn3c(NCC4CC4)cc(Nc4ccc(F)c(Cl)c4)nc23)N1 [Example D2] | > 7.00 | – | –
45 | O=C1NC(=O)/C(=C/c2cnn3c(NCC4CC4)cc(Nc4cccc(CN5CCOCC5)c4)nc23)N1 [Example C2] | > 7.00 | – | –

Row | SMILES | pIC50 (CK2 ααββ) | pIC50 (recombinant human PIM2; [1]) | also measured
46 | Cc1cccc(Nc2cc(NCC3CC3)n3ncc(/C=C4\NC(=O)NC4=O)c3n2)c1 [Example A2] | > 7.00 | – | –
47 | CN1CCCN(c2cc(NC3CC3)n3ncc(/C=C4\SC(=O)NC4=O)c3n2)CC1 [Example Q3] | > 7.00 | 5.69 | –
48 | Cc1nn2c(NC3CC3)cc(Nc3ccc(-n4cccn4)cc3)nc2c1C=C1NC(=O)NC1=O [Example 275, 5-((5-(4-(1H-pyrazol-1-yl)phenylamino)-7-(cyclopropylamino)-2-methylpyrazolo[1,5-a]pyrimidin-3-yl)methylene)imidazolidine-2,4-dione] | < 6.00 | – | inhibition at […] (recombinant human PIM2; read-out: PIM2: % inh […], at 2.5 μM compound): 43.4%
49 | O=C1NC(=O)/C(=C/c2cnn3c(NC4CC4)cc(Nc4cc(F)cc(F)c4)nc23)N1 [Example N1] | > 8.00 | 5.71 | –
50 | O=C1NC(=O)/C(=C/c2cnn3c(NC4CC4)cc(Nc4ccccn4)nc23)N1 [Example O1] | > 8.00 | < 5.60 | –
51 | CNC(=O)c1cccc(Nc2cc(NCC3CC3)n3ncc(/C=C4\NC(=O)NC4=O)c3n2)c1 [Example G2] | > 8.00 | – | –
52 | CC(CNc1cc(Nc2cc(Cl)ccc2F)nc2c(C=C3NC(=O)NC3=O)cnn12)N1CCOCC1 (racemic) [Example 515] | > 8.00 | – | –
53 | O=C1NC(=O)/C(=C/c2cnn3c(NCc4ccncc4)cc(Nc4cccc(Cl)c4)nc23)N1 [Example E6] | > 6.00 | 5.87 | –
54 | COC(=O)N[C@H]1CC[C@H](Nc2cc(NC3CC3)n3ncc(/C=C4\NC(=O)NC4=O)c3n2)CC1 [Example C3] | > 8.00 | 6.17 | –
55 | CC(C)N1CCC(Nc2cc(Nc3cccc(Cl)c3)nc3c(/C=C4\NC(=O)NC4=O)cnn23)CC1 [Example Q5] | > 7.00 | < 5.60 | –
56 | O=C1NC(=O)/C(=C/c2cnn3c([S+]([O-])Cc4ccccc4)cc(-c4cccc(Cl)c4)nc23)N1 (centres unmarked) [Example A6] | > 7.00 | 6.68 | –
57 | CC(C)(C)OC(=O)N1CCCC1CNc1cc(Nc2cccc(Cl)c2)nc2c(/C=C3\NC(=O)NC3=O)cnn12 (centres unmarked) [Example N6] | > 7.00 | < 5.60 | –
58 | O=C1NC(=O)/C(=C/c2cnn3c(NC(=O)C4CCNCC4)cc(Nc4cccc(Cl)c4)nc23)N1 [Example B1, N-(5-(3-chlorophenylamino)-3-((2,5-dioxoimidazolidin-4-ylidene)methyl)pyrazolo[1,5-a]pyrimidin-7-yl)piperidine-4-carboxamide] | > 6.00 | 5.60 | –
59 | O=C1NC(=O)/C(=C/c2cnn3c(NCCN4CCOCC4)cc(Nc4cccc(Cl)c4)nc23)N1 [Example L6] | > 5.70 | 5.66 | –
60 | O=C1NC(=O)/C(=C/c2cnn3c(NC4CC4)cc(Nc4ccc(-n5cccn5)cc4)nc23)N1 [Example R1] | > 8.00 | < 5.60 | –
61 | CCN(CC)CCNc1cc(NC2CC2)n2ncc(/C=C3\SC(=O)NC3=O)c2n1 [Example O3] | > 7.00 | < 5.60 | –
62 | O=C1NC(=O)C(=Cc2cnn3c(NC4CC4)nc(OCc4ccccn4)nc23)N1 [Compound M36] | > 8.00 | – | pIC50 (recombinant human PIM2; read-out: PIM2: IC50): < 6.00
63 | O=C1NC(=O)/C(=C/c2cnn3c(NCC4CC4)cc(Nc4ccc(Cl)cc4)nc23)N1 [Example I2] | > 7.00 | – | –
